# Experimental data reported in US9149038B2, “4-amino-6-(heterocyclic)picolinates and 6-amino-2-(heterocyclic)pyrimidine-4-carboxylates and their use as herbicides” (Dow AgroSciences LLC, priority 2013, dated 2015).
# Where two headings read alike, the source gives them in different places.
# Legend:
# [1] = test system: Key Broadleaf Weed and Crop Species; assay: Post-Emergent Test II: postemergent herbicidal activity, visual rating after 14 d (Table 7); type: in vivo; conditions: post-emergence, 336 h; for pest or weed control at 35 g/ha: 35 g ai/ha; for pest or weed control at 70 g/ha: 70 g ai/ha; for pest or weed control at 140 g/ha: 140 g ai/ha
# How it was run: (§1)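 Post-emergence foliar spray, 187 L/ha, first/second true leaf stage plants in potting mix (pH 6.0-6.8). Rates: top rate and 2-fold serial dilutions to 1/16×. Solvent-blank controls. Readout: visual % kill at 14 d.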
# [2] = test system: Key Grass and Sedge Weeds as well as Grass Crops; assay: Post-Emergent Test II: postemergent herbicidal activity, visual rating after 14 d (Table 8); type: in vivo; conditions: post-emergence, 336 h; for pest or weed control at 35 g/ha: 35 g ai/ha; for pest or weed control at 70 g/ha: 70 g ai/ha; for pest or weed control at 140 g/ha: 140 g ai/ha
# How it was run: as §1
# [3] = lambsquarters (Chenopodium album), read-out: Visual Growth Reduction (%) 14 Days After Application CHEAL
# [4] = oilseed rape, canola (Brassica napus), read-out: Visual Growth Reduction (%) 14 Days After Application BRSNN
# [5] = redroot pigweed (Amaranthus retroflexus), read-out: Visual Growth Reduction (%) 14 Days After Application AMARE
# [6] = sunflower (Helianthus annuus), read-out: Visual Growth Reduction (%) 14 Days After Application HELAN
# [7] = velvetleaf (Abutilon theophrasti), read-out: Visual Growth Reduction (%) 14 Days After Application ABUTH
# [8] = wild poinsettia (Euphorbia heterophylla), read-out: Visual Growth Reduction (%) 14 Days After Application EPHHL
# [9] = barnyardgrass (Echinochloa crus-galli), read-out: Visual Growth Reduction (%) 14 Days After Application ECHCG
# [10] = giant foxtail (Setaria faberi), read-out: Visual Growth Reduction (%) 14 Days After Application SETFA
# [11] = maize, corn (Zea mays), read-out: Visual Growth Reduction (%) 14 Days After Application ZEAMX
# [12] = rice (Oryza sativa), read-out: Visual Growth Reduction (%) 14 Days After Application ORYSA
# [13] = wheat, spring (Triticum aestivum), read-out: Visual Growth Reduction (%) 14 Days After Application TRZAS
# [14] = yellow nutsedge (Cyperus esculentus), read-out: Visual Growth Reduction (%) 14 Days After Application CYPES
SMILES,"pest or weed control at 35 g/ha [1, 3]","pest or weed control at 70 g/ha [1, 3]","pest or weed control at 140 g/ha [1, 3]","pest or weed control at 35 g/ha [1, 4]","pest or weed control at 70 g/ha [1, 4]","pest or weed control at 140 g/ha [1, 4]","pest or weed control at 35 g/ha [1, 5]","pest or weed control at 70 g/ha [1, 5]","pest or weed control at 140 g/ha [1, 5]","pest or weed control at 35 g/ha [1, 6]","pest or weed control at 70 g/ha [1, 6]","pest or weed control at 140 g/ha [1, 6]","pest or weed control at 35 g/ha [1, 7]","pest or weed control at 70 g/ha [1, 7]","pest or weed control at 140 g/ha [1, 7]","pest or weed control at 35 g/ha [1, 8]","pest or weed control at 70 g/ha [1, 8]","pest or weed control at 140 g/ha [1, 8]","pest or weed control at 35 g/ha [2, 9]","pest or weed control at 70 g/ha [2, 9]",also measured
COC(=O)c1nc(-c2ccc3c(c2)OC(F)(F)O3)c(Cl)c(N)c1Cl [Compound 1],0 to 29%,0 to 29%,0 to 29%,0 to 29%,0 to 29%,0 to 29%,0 to 29%,0 to 29%,0 to 29%,85 to 94%,85 to 94%,85 to 94%,0 to 29%,0 to 29%,0 to 29%,0 to 29%,0 to 29%,0 to 29%,45 to 59%,60 to 74%,"pest or weed control at 140 g/ha [2, 9]: 60 to 74%; pest or weed control at 35 g/ha [2, 10]: 0 to 29%; pest or weed control at 70 g/ha [2, 10]: 45 to 59%; pest or weed control at 140 g/ha [2, 10]: 45 to 59%; pest or weed control at 35 g/ha [2, 11]: 60 to 74%; pest or weed control at 70 g/ha [2, 11]: 60 to 74%; pest or weed control at 140 g/ha [2, 11]: 60 to 74%; pest or weed control at 35 g/ha [2, 12]: 0 to 29%; pest or weed control at 70 g/ha [2, 12]: 0 to 29%; pest or weed control at 140 g/ha [2, 12]: 0 to 29%; pest or weed control at 35 g/ha [2, 13]: 0 to 29%; pest or weed control at 70 g/ha [2, 13]: 0 to 29%; pest or weed control at 140 g/ha [2, 13]: 0 to 29%; pest or weed control at 35 g/ha [2, 14]: 0 to 29%; pest or weed control at 70 g/ha [2, 14]: 0 to 29%; pest or weed control at 140 g/ha [2, 14]: 0 to 29%"
C=Cc1c(C(=O)O)nc(-c2cc3c(cc2F)OC(F)(F)O3)c(F)c1N [Compound 28],0 to 29%,0 to 29%,0 to 29%,0 to 29%,0 to 29%,60 to 74%,0 to 29%,0 to 29%,0 to 29%,85 to 94%,85 to 94%,95 to 100%,0 to 29%,0 to 29%,60 to 74%,95 to 100%,95 to 100%,95 to 100%,60 to 74%,75 to 84%,"pest or weed control at 140 g/ha [2, 9]: 75 to 84%; pest or weed control at 35 g/ha [2, 10]: 0 to 29%; pest or weed control at 70 g/ha [2, 10]: 45 to 59%; pest or weed control at 140 g/ha [2, 10]: 60 to 74%; pest or weed control at 35 g/ha [2, 11]: 60 to 74%; pest or weed control at 70 g/ha [2, 11]: 60 to 74%; pest or weed control at 140 g/ha [2, 11]: 75 to 84%; pest or weed control at 35 g/ha [2, 12]: 0 to 29%; pest or weed control at 70 g/ha [2, 12]: 0 to 29%; pest or weed control at 140 g/ha [2, 12]: 0 to 29%; pest or weed control at 35 g/ha [2, 13]: 0 to 29%; pest or weed control at 70 g/ha [2, 13]: 0 to 29%; pest or weed control at 140 g/ha [2, 13]: 30 to 44%; pest or weed control at 35 g/ha [2, 14]: 95 to 100%; pest or weed control at 70 g/ha [2, 14]: 95 to 100%; pest or weed control at 140 g/ha [2, 14]: 95 to 100%"
C=Cc1c(C(=O)OC)nc(-c2cc3c(cc2F)OC(F)(F)O3)c(F)c1N [Compound 27],0 to 29%,0 to 29%,0 to 29%,0 to 29%,0 to 29%,0 to 29%,0 to 29%,0 to 29%,0 to 29%,30 to 44%,75 to 84%,85 to 94%,0 to 29%,0 to 29%,0 to 29%,0 to 29%,0 to 29%,0 to 29%,0 to 29%,0 to 29%,"pest or weed control at 140 g/ha [2, 9]: 0 to 29%; pest or weed control at 35 g/ha [2, 10]: 0 to 29%; pest or weed control at 70 g/ha [2, 10]: 0 to 29%; pest or weed control at 140 g/ha [2, 10]: 0 to 29%; pest or weed control at 35 g/ha [2, 11]: 0 to 29%; pest or weed control at 70 g/ha [2, 11]: 0 to 29%; pest or weed control at 140 g/ha [2, 11]: 30 to 44%; pest or weed control at 35 g/ha [2, 12]: 0 to 29%; pest or weed control at 70 g/ha [2, 12]: 0 to 29%; pest or weed control at 140 g/ha [2, 12]: 0 to 29%; pest or weed control at 35 g/ha [2, 13]: 0 to 29%; pest or weed control at 70 g/ha [2, 13]: 0 to 29%; pest or weed control at 140 g/ha [2, 13]: 0 to 29%; pest or weed control at 35 g/ha [2, 14]: 0 to 29%; pest or weed control at 70 g/ha [2, 14]: 0 to 29%; pest or weed control at 140 g/ha [2, 14]: 0 to 29%"
